Laboratory results taken from paper PMC8151276, “An Integrated Approach toward NanoBRET Tracers for Analysis of GPCR Ligand Engagement” (Molecules, 2021).

How the values were obtained:
[1] = target: T1, OPRD1 (Homo sapiens, UniProt P41143); test: NanoBRET screen HiBiT-OPRD1 in HEK293; assay type: binding
T1 construct: purchased Promega (in-house HiBiT-GPCR construct library, NanoBRET)
Description: (§1) Each tracer candidate was screened across the entire library of HiBiT-GPCR constructs using NanoBRET as the detection modality. As depicted in Figure 4A, the specificity of interactions was evaluated through decrease in BRET due to competitive displacement of a bound tracer by excess parental compound. Each tracer was analyzed for binding to each HiBiT-GPCR fusion in the absence and in the presence of competing parental compound. Briefly, HEK293 cells were transfected with HiBiT-GPCR constructs diluted into promoterless DNA to reduce expression and maximize translocation to the cell surface. Each tracer candidate was then screened at concentrations of 1 μM and 0.1 μM across cells expressing these fusions. Cells were treated for 1.5 h with tracer either alone or in the presence of 20 μM competing parental compound (i.e., control). BRET was measured upon addition of purified LgBiT and subsequent complementation with HiBiT genetically fused to a GPCR. The specificity of interactions was assessed through a decrease in BRET signal due to competitive displacement of the bound tracer. To further gauge the robustness of these interactions, the fold response over the control (i.e., BRETtracer/BRETcontrol) was calculated. We chose a 1.5-fold response, which translates to ≥7-fold signal over noise as the minimal threshold required to score an interaction as positive.
(§2) HiBiT-GPCR DNA constructs were diluted in 10 mM Tris pH 8 to a final concentration of 0.01 μg/μL, arrayed in 96-well plates and stored at −20 °C. For transfection, HEK293 cells were suspended in Opti-MEM (without phenol red) supplemented with 2% fetal bovine serum (Seradigm) and 100 units/mL penicillin–streptomycin (Gibco) at a final concentration of 220,000 cells/mL and dispensed into white 96-well plates at 90 μL/well. Subsequent transfections and screens were carried using an Agilent Bravo Automated Liquid Handling Platform. First, the 96-well HiBiT DNA arrays were diluted 25-fold in Opti-MEM (without serum or phenol red) to a final concentration of 0.0004 μg/μL and 20 μL of the diluted DNAs were transferred into new 96-well plates. Next, promoterless carrier DNA (1 μg/μL) was diluted 25-fold (0.04 μg/μL) and then dispensed into the diluted arrays at 20 μL/well. Following brief mixing, Viafect transfection reagent (Promega) diluted 16-fold into Opti-MEM was dispensed into the plates at 40 μL/well. After mixing by pipetting, plates were incubated for 10 min on the pipetting station deck. The DNA-transfection reagent complexes were then added to plates containing cells. To facilitate the screen, 10 μL of DNA-transfection reagent complexes were added in duplicates to the top 4 and bottom 4 rows, resulting in two identical 48-well arrays per plate. Plates with transfected cells were incubated for 18–20 h at 37 °C/5% CO2. A screen of each tracer across the entire library using two different concentrations requires duplicate plates of transfected cells. Depending on the number of tracers being screened, transfections can be scaled up using the same ratios. The next day, for each tracer, four 20× screening solutions in tracer dilution buffer (Promega) were prepared: two duplicates at final concentration of 20 μM and two duplicates at a final concentration of 2 μM. […] The four resulting solutions were diluted 4-fold in Opti-MEM without serum or phenol red to generate 5× solutions (5 µM and 0.5 µM tracer +/− 100 μM competing compound). To screen the library, a BioTek MultiFlo FX liquid dispenser was used to dispense 22.5 µL of tracer solution to the top 4 rows and 22.5 µL tracer + competing compound solution to the 4 bottom rows. Plates were briefly mixed on an orbital shaker and incubated for 1.5 h at room temperature. […] Plates were briefly mixed on an orbital shaker and incubated for 15 min to allow complementation.

[2] = target: T2, ADRB3 (Homo sapiens, UniProt P13945); test: NanoBRET screen HiBiT-ADRB3 in HEK293; assay type: binding
T2 construct: purchased Promega (in-house HiBiT-GPCR construct library, NanoBRET)
T2 sequence (P13945 whole entry): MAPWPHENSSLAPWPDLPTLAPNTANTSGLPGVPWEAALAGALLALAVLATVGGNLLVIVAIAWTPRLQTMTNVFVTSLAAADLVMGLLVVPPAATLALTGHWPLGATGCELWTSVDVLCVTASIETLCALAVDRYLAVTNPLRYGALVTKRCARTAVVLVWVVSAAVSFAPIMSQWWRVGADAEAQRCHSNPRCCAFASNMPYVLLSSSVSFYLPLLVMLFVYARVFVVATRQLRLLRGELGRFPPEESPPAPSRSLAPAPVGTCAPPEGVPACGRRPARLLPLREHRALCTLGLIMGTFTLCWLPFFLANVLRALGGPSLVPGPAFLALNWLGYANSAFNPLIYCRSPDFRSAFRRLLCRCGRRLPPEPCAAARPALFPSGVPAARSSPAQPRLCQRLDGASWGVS
Description: as §1, §2

T1 sequence (P41143 whole entry): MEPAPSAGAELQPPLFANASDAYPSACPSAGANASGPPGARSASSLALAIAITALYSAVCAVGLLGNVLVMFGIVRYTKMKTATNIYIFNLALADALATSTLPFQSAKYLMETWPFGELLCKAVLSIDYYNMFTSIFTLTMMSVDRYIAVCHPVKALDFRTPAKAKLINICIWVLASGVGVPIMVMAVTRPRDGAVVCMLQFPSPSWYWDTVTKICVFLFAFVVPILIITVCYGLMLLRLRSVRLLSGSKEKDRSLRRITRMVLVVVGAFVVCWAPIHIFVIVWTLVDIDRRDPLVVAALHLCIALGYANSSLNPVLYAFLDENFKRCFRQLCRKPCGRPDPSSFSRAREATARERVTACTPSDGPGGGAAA

## O=C(CCOCCOCCOCCOCCNC(=O)CCc1ccc2n1[B-](F)(F)[N+]1=C(c3ccc[nH]3)C=CC1=C2)NCCCN1CCN(C2=Nc3ccccc3Oc3ccc(Cl)cc32)CC1 [Loxapine-a-2-NB590]
[1]; OPRD1, tracer 0.1μM
  NanoBRET Fold Response: 1.01
[1]; OPRD1, tracer 1μM
  NanoBRET Fold Response: 1.04
[2]; ADRB3, tracer 0.1μM
  NanoBRET Fold Response: 1.01
[2]; ADRB3, tracer 1μM
  NanoBRET Fold Response: 0.93

## CCCn1c(=O)c2[nH]c(-c3ccc(OCC(=O)NCCNC(=O)CCOCCNC(=O)c4ccc(CNC(=O)CCc5ccc6n5[B-](F)(F)[N+]5=C(c7ccc[nH]7)C=CC5=C6)cc4)cc3)nc2n(CCC)c1=O [XAC-3-NB590]
[1]; OPRD1, tracer 0.1μM
  NanoBRET Fold Response: 0.97
[1]; OPRD1, tracer 1μM
  NanoBRET Fold Response: 0.81
[2]; ADRB3, tracer 0.1μM
  NanoBRET Fold Response: 1.11
[2]; ADRB3, tracer 1μM
  NanoBRET Fold Response: 1.05

## CN(C)CCC=C1c2ccccc2CCc2ccc(C(=O)NCCNC(=O)CCOCCOCCOCCOCCNC(=O)CCc3ccc4n3[B-](F)(F)[N+]3=C(c5ccc[nH]5)C=CC3=C4)cc21 [Amitriptyline-a-2-NB590]
[1]; tracer at 0.1μM
  NanoBRET Fold Response: 0.99
[1]; tracer at 1μM
  NanoBRET Fold Response: 0.91
[2]; tracer at 0.1μM
  NanoBRET Fold Response: 0.95
[2]; tracer at 1μM
  NanoBRET Fold Response: 0.99

## COc1ccccc1N1CCN(CCCCN2C(=O)c3ccc(CNC(=O)CCOCCOCCOCCOCCNC(=O)CCc4ccc5n4[B-](F)(F)[N+]4=C(c6ccc[nH]6)C=CC4=C5)cc3C2=O)CC1 [NAN-190-2-NB590]
[1]; OPRD1, tracer 0.1μM
  NanoBRET Fold Response: 0.98
[2]; ADRB3, tracer 0.1μM
  NanoBRET Fold Response: 0.98

## O=C(CCc1ccc2n1[B-](F)(F)[N+]1=C(c3ccc[nH]3)C=CC1=C2)NCc1ccc(C(=O)NCCOCCOCCNCC(O)COc2cccc3ccccc23)cc1 (centres unmarked) [Propranolol-3-NB590]
[1]; OPRD1, 0.1μM
  NanoBRET Fold Response: 0.97
[1]; OPRD1, 1μM
  NanoBRET Fold Response: 1.01
[2]; ADRB3, 0.1μM
  NanoBRET Fold Response: 1.47
[2]; ADRB3, 1μM
  NanoBRET Fold Response: 1.17

## COc1ccccc1N1CCN(CCCCN2C(=O)c3ccc(CNC(=O)CCOCCNC(=O)c4ccc(CNC(=O)CCc5ccc6n5[B-](F)(F)[N+]5=C(c7ccc[nH]7)C=CC5=C6)cc4)cc3C2=O)CC1 [NAN-190-3-NB590]
[1]; OPRD1, tracer 0.1μM
  NanoBRET Fold Response: 0.79
[1]; OPRD1, tracer 1μM
  NanoBRET Fold Response: 1.17
[2]; ADRB3, tracer 0.1μM
  NanoBRET Fold Response: 1.03
[2]; ADRB3, tracer 1μM
  NanoBRET Fold Response: 0.92

## O=C(CCc1ccc2n1[B-](F)(F)[N+]1=C(c3ccc[nH]3)C=CC1=C2)NCc1ccc(C(=O)NCCOCCC(=O)N[C@@H]2CC[C@@]3(O)[C@H]4Cc5ccc(O)c6c5[C@@]3(CCN4CC3CC3)[C@H]2O6)cc1 [Naltrexone-3-NB590]
[1]; OPRD1, tracer 0.1μM
  NanoBRET Fold Response: 1.81
[1]; OPRD1, tracer 1μM
  NanoBRET Fold Response: 1.52
[2]; ADRB3, tracer 0.1μM
  NanoBRET Fold Response: 0.99
[2]; ADRB3, tracer 1μM
  NanoBRET Fold Response: 1.02

## CCOC(=O)c1cc(C#N)c(N2CCC(C(=O)NS(=O)(=O)Cc3ccccc3/C=C/C(=O)NCCNC(=O)CCc3ccc4n3[B-](F)(F)[N+]3=C(c5ccc[nH]5)C=CC3=C4)CC2)nc1C [AZD1283-1-NB590]
[1]; OPRD1, 0.1μM
  NanoBRET Fold Response: 1.09
[1]; OPRD1, 1μM
  NanoBRET Fold Response: 1.08
[2]; ADRB3, 0.1μM
  NanoBRET Fold Response: 1.09
[2]; ADRB3, 1μM
  NanoBRET Fold Response: 1.04

## COc1ccc2[nH]c(-c3ccc(CNC(=O)CCOCCOCCOCCOCCNC(=O)CCc4ccc5n4[B-](F)(F)[N+]4=C(c6ccc[nH]6)C=CC4=C5)cc3)c(CCNC(C)=O)c2n1 [AzomelatoninICO9-2-NB590]
[1]; 0.1μM tracer
  NanoBRET Fold Response: 1.06
[1]; 1μM tracer
  NanoBRET Fold Response: 1.03
[2]; 0.1μM tracer
  NanoBRET Fold Response: 1.00
[2]; 1μM tracer
  NanoBRET Fold Response: 1.11

## CC(C)N(CC[C@H](c1ccccc1)c1cc(CCNC(=O)CCOCCOCCOCCOCCNC(=O)CCc2ccc3n2[B-](F)(F)[N+]2=C(c4ccc[nH]4)C=CC2=C3)ccc1O)C(C)C [Tolterodine-2-NB590]
[1]; OPRD1, tracer 0.1μM
  NanoBRET Fold Response: 1.00
[1]; OPRD1, tracer 1μM
  NanoBRET Fold Response: 0.94
[2]; ADRB3, tracer 0.1μM
  NanoBRET Fold Response: 0.97
[2]; ADRB3, tracer 1μM
  NanoBRET Fold Response: 0.97

## CN1CCN(C2=Nc3cc(Cl)ccc3N(CC(=O)NCCOCCOCCOCCOCCNC(=O)CCc3ccc4n3[B-](F)(F)[N+]3=C(c5ccc[nH]5)C=CC3=C4)c3ccccc32)CC1 [Clozapine-c-2-NB590]
[1]; OPRD1, 0.1μM tracer
  NanoBRET Fold Response: 0.99
[1]; OPRD1, 1μM tracer
  NanoBRET Fold Response: 0.92
[2]; ADRB3, 0.1μM tracer
  NanoBRET Fold Response: 0.98
[2]; ADRB3, 1μM tracer
  NanoBRET Fold Response: 0.96

## N#CN=C(NCCCOc1cccc(CN2CCCCC2)c1)NCCNC(=O)CCOCCOCCOCCOCCNC(=O)CCc1ccc2n1[B-](F)(F)[N+]1=C(c3ccc[nH]3)C=CC1=C2 [Aminopotentidine-2-NB590]
[1]; OPRD1, tracer 0.1μM
  NanoBRET Fold Response: 1.05
[1]; OPRD1, tracer 1μM
  NanoBRET Fold Response: 1.02
[2]; ADRB3, tracer 0.1μM
  NanoBRET Fold Response: 1.00
[2]; ADRB3, tracer 1μM
  NanoBRET Fold Response: 1.01

## COc1ccc2c(n1)c(CCNC(C)=O)cn2CCNC(=O)CCc1ccc2n1[B-](F)(F)[N+]1=C(c3ccc[nH]3)C=CC1=C2 [Azamelatonin-1-NB590]
[1]; 0.1μM tracer
  NanoBRET Fold Response: 1.00
[1]; 1μM tracer
  NanoBRET Fold Response: 1.00
[2]; 0.1μM tracer
  NanoBRET Fold Response: 1.01
[2]; 1μM tracer
  NanoBRET Fold Response: 1.06

## CN(CCC=C1c2ccccc2CCc2ccccc21)C(=O)CCOCCOCCOCCOCCNC(=O)CCc1ccc2n1[B-](F)(F)[N+]1=C(c3ccc[nH]3)C=CC1=C2 [Amitriptyline-e-2-NB590]
[1]; tracer at 1μM
  NanoBRET Fold Response: 1.01
[2]; tracer at 1μM
  NanoBRET Fold Response: 1.01

## N#CN/C(=N\CCNC(=O)c1ccc(N)cc1)NCCCOc1cccc(CN2CCCCC2)c1 [Aminopotentidine (unmodified)]
[1]; OPRD1, other tracers/Aminopotentidine (unmodified), 0.1μM
  NanoBRET Fold Response: 1.25
[1]; OPRD1, other tracers/Aminopotentidine (unmodified), 1μM
  NanoBRET Fold Response: 1.01
[2]; ADRB3, other tracers/Aminopotentidine (unmodified), 0.1μM
  NanoBRET Fold Response: 1.02
[2]; ADRB3, other tracers/Aminopotentidine (unmodified), 1μM
  NanoBRET Fold Response: 1.10

## CC(C)N(CC[C@H](c1ccccc1)c1cc(CCNC(=O)c2ccc(CNC(=O)CCc3ccc4n3[B-](F)(F)[N+]3=C(c5ccc[nH]5)C=CC3=C4)cc2)ccc1O)C(C)C [Tolterodine-BZ-NB590]
[1]; OPRD1, tracer 0.1μM
  NanoBRET Fold Response: 1.06
[1]; OPRD1, tracer 1μM
  NanoBRET Fold Response: 1.05
[2]; ADRB3, tracer 0.1μM
  NanoBRET Fold Response: 0.93
[2]; ADRB3, tracer 1μM
  NanoBRET Fold Response: 0.99

## O=C(CCc1ccc2n1[B-](F)(F)[N+]1=C(c3ccc[nH]3)C=CC1=C2)NCCOCCOCCNC(=O)OCCOCCN1CCN(C2=Nc3ccccc3Sc3ccccc32)CC1 [Quetiapine-a-2-NB590]
[1]; OPRD1, tracer 0.1μM
  NanoBRET Fold Response: 1.11
[1]; OPRD1, tracer 1μM
  NanoBRET Fold Response: 0.89
[2]; ADRB3, tracer 0.1μM
  NanoBRET Fold Response: 1.08
[2]; ADRB3, tracer 1μM
  NanoBRET Fold Response: 0.99

## Cc1cc2c(s1)Nc1ccccc1N=C2N1CCN(CCCNC(=O)CCOCCOCCOCCOCCNC(=O)CCc2ccc3n2[B-](F)(F)[N+]2=C(c4ccc[nH]4)C=CC2=C3)CC1 [Olanzapine-a-2-NB590]
[1]; OPRD1, tracer 0.1μM
  NanoBRET Fold Response: 0.95
[1]; OPRD1, tracer 1μM
  NanoBRET Fold Response: 1.09
[2]; ADRB3, tracer 0.1μM
  NanoBRET Fold Response: 1.05
[2]; ADRB3, tracer 1μM
  NanoBRET Fold Response: 0.89
